In patent US11919965B2, “Methods of treating multiple myeloma with bispecific anti-BCMA x anti-CD3 antibodies” (Regeneron Pharmaceuticals, Inc., priority 2019, dated 2024):

Columns and labels:
Experiment in all cases: Jurkat/NFATLuc reporter bioassay (T-cell activation)
Assay type in all cases: cell-based, human
[1] = test system: Jurkat/NFATLuc.3C7 reporter cells with OPM-2 cells (BCMA positive)
Method: (§1) Activity of the anti-BCMA×anti-CD3 bispecific antibodies were assessed in a Jurkat/NFATLuc reporter bioassay utilizing several cell lines with varying levels of BCMA surface expression. The Jurkat cells were engineered to express an NFAT-luciferase reporter (Jurkat/NFATLuc.3C7), and 50,000 Jurkat reporter cells were combined with 50,000 BCMA positive (Daudi, MM1-S, NCI-H929, OPM-2, RPMI-8226, MOLP-8, or Raji) or BCMA negative (HEK293) cells in Thermo Nunclon delta 96 well white microwell plates (Thermo Scientific, Cat #136102) in 50 ul of assay media (RPMI media with 10% FBS and 1% P/S/G). Three-fold serial dilutions of the BCMA×CD3 bispecific antibodies (mAb25441D or mAb25442D), or a bivalent anti-BCMA antibody (mAb21581) were immediately added in 50 uL of assay buffer. The plates were gently agitated and incubated in a 37° C., 5% CO2 incubator for 4-6 hours. NFAT-Luciferase activity was determined using Promega One-Glo (Cat #E6130) and a Perkin Elmer Envision plate reader. RLU were plotted in GraphPad Prism using a four-parameter logistic equation over a 12-point response curve to calculate EC50 values. The no antibody treatment condition for each dose-response curve is also included in the analysis as a continuation of the three-fold serial dilution and is represented as the lowest dose. The signal to noise (S:N) is determined by taking the ratio of the highest RLU on the curve to the lowest.

[2] = test system: Jurkat/NFATLuc.3C7 reporter cells with NCI-H929 cells (BCMA positive)
Method: as §1

[3] = test system: Jurkat/NFATLuc.3C7 reporter cells with MOLP-8 cells (BCMA positive)
Method: as §1

Row | Substance | S:N (highest RLU to lowest) [1] | S:N (highest RLU to lowest) [2] | S:N (highest RLU to lowest) [3]
1 | REGN5458: anti-BCMA×anti-CD3 bispecific antibody: mAb21581 BCMA heavy chain, mAb7221G CD3 heavy chain and common light chain; SEQ ID NOs 126, 127, 129 | 8 | 39 | –
2 | REGN5459: anti-BCMA×anti-CD3 bispecific antibody: mAb21581 BCMA heavy chain, mAb7221G20 CD3 heavy chain and common light chain; SEQ ID NOs 126, 128, 129 | – | – | 31
